Source: US11420962B2, “Indene derivatives useful in treating pain and inflammation” (TARO PHARMACEUTICALS INC., priority 2018, dated 2022)

Assays:
Mice (male, C57Bl/6) = assay: Formalin pain assay in mice; assay type: in vivo
Description: Mice (male, C57BL/6) were placed singly in a Perspex chamber for approximately 30 min on three successive days to acclimate and thereby reduce stress-induced behaviors. On the fourth day, the experimental animals received a 25 μl injection of 2.5% formalin beneath the left plantar skin using a 29-gauge syringe. […] The total time spent on flinches/licking/biting of the hind paw was recorded by visual observation for every 5 min period/interval for total observation duration of 60 min in two phases, the early phase (0-5 min) and the late phase (15-40 min). Observers were blinded to the treatment group allocation.
For test compounds, the % protection from 0-60 min was used to assess activity. Scoring for the test compounds was as follows: “A” represents a % protection of 81 to 100%, “B” represents a % protection of 61 to 80%, “C” represents a % protection of 31 to 60% and “D” represents a % protection of 0 to 30%.

rats (male, Wistar) = assay: Complete Freund's Adjuvant (CFA) model of inflammatory pain in rats; assay type: in vivo; settings: 30 mg/kg dose
Description: Representative compounds of the invention (i.e., test compounds) were tested in this model of inflammatory pain. The rats (male, Wistar) were acclimatized to the instruments (plantar test surface and dynamic plantar aesthesiometer) on two consecutive days prior to the initiation of the study. On Day 0, basal paw withdrawal latency and paw withdrawal threshold were taken and animals were randomized to different groups. Complete Freund's Adjuvant (CFA) at 1 mg/mL (0.1 mL) was injected into the plantar surface of right hind paw. Test compounds (3 or 30 mg/kg) were administered PO, twice (Day 0 and Day 1) or once, on Day 1 (24 h after CFA). Thermal hyperalgesia and mechanical allodynia were assessed at 0 (baseline), 1, 3 and 6 h after administration of the test compound on Day 1. Diclofenac was used as a reference compound, given once on Day 1.

[1] = Metabolism by human liver microsomes; assay type: in vitro ADME; settings: Table 8; 10 µM, in the presence of NADPH, 1 mg/mL protein
Method in brief: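 Compound at 10 μM preincubated 10 min at 37 °C with human liver microsomes (1 mg/mL protein), 100 mM Tris HCl pH 7.5; started with 1 mM NADPH, run 60 min. Percent remaining at 60 min versus 0-time by LC-MS/MS analyte/internal-standard ratio, scored in bands.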

Compound: C=C1CC[C@H]2[C@H](CN)[C@@H]([C@@]3(C)Cc4cn[nH]c4C[C@@H]3CO)CC[C@]12C [Ia-1, ((5R,6S)-5-((3aS,4R,5S,7aS)-4-(aminomethyl)-7a-methyl-1-methyleneoctahydro-1H-inden-5-yl)-5-methyl-4,5,6,7-tetrahydro-1H-indazol-6-yl)methanol]
- % inhibition, early phase (neurogenic pain) (Mice (male, C57Bl/6); 30 mg/kg dose, 0-5 min): 59%
- % inhibition, late phase (inflammatory pain) (Mice (male, C57Bl/6); 30 mg/kg dose, 15-40 min): 52%
- Scoring (% protection from 0-60 min) (Mice (male, C57Bl/6); Table 7, formalin 2.5%, left plantar): B (a % protection of 61 to 80%)
- increase in the paw withdrawal threshold (rats (male, Wistar)): 31%
- Scoring (% of drug remaining after 60 minutes, PDR60) [1]: B (a PDR^60 of 61 to 80%)
